In ChEMBL document CHEMBL4507304, “Data for DCP probe TP-021” (2021):

Assays:
[1] = biological target: D(1A) dopamine receptor (Homo sapiens) (UniProt P21728); conditions: Compound concentration 10.0 uM
[2] = biological target: Serine/threonine-protein kinase tousled-like 1 (Homo sapiens) (UniProt Q9UKI8); conditions: Compound concentration 1000.0 nM
[3] = biological target: Receptor-interacting serine/threonine-protein kinase 2 (Homo sapiens) (UniProt O43353); conditions: Compound concentration 1000.0 nM
[4] = biological target: Epithelial discoidin domain-containing receptor 1 (Homo sapiens) (UniProt Q08345); conditions: Compound concentration 1000.0 nM
[5] = biological target: Dual specificity mitogen-activated protein kinase kinase 4 (Homo sapiens) (UniProt P45985); conditions: Compound concentration 1000.0 nM
[6] = biological target: Peripheral plasma membrane protein CASK (Homo sapiens) (UniProt O14936); conditions: Compound concentration 1000.0 nM
Peripheral plasma membrane protein CASK (Homo sapiens), sequence (O14936 whole entry): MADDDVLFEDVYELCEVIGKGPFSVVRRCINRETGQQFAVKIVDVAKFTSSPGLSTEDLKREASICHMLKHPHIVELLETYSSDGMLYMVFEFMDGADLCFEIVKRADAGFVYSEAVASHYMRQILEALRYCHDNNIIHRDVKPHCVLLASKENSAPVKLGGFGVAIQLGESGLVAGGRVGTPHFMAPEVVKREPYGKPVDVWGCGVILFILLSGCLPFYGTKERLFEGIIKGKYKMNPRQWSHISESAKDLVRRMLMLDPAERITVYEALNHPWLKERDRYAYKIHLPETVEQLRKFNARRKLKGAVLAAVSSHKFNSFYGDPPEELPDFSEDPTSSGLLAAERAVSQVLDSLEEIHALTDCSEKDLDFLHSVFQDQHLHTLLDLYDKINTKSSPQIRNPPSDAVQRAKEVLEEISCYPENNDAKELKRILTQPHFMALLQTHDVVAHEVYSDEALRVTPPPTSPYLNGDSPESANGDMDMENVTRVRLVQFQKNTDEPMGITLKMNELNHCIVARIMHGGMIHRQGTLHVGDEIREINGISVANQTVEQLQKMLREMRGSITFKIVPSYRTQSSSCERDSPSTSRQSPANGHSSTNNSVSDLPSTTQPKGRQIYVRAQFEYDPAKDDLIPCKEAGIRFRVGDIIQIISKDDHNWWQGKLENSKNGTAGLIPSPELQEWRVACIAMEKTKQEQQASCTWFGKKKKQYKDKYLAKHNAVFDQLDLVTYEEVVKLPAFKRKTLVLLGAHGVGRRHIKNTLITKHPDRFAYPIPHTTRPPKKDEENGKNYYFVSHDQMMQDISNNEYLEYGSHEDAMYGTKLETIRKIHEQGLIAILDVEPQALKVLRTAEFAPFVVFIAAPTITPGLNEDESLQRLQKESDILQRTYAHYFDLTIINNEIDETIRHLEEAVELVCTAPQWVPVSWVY

[7] = biological target: Inhibitor of nuclear factor kappa-B kinase subunit alpha (Homo sapiens) (UniProt O15111); conditions: Compound concentration 1000.0 nM
[8] = biological target: Mitogen-activated protein kinase 6 (Homo sapiens) (UniProt Q16659); conditions: Compound concentration 1000.0 nM
[9] = biological target: Serine/threonine-protein kinase D2 (Homo sapiens) (UniProt Q9BZL6); conditions: Compound concentration 1000.0 nM
[10] = biological target: Cyclin-dependent kinase 17 (Homo sapiens) (UniProt Q00537); conditions: Compound concentration 1000.0 nM
[11] = biological target: Ephrin type-A receptor 1 (Homo sapiens) (UniProt P21709); conditions: Compound concentration 1000.0 nM
[12] = biological target: Beta-1 adrenergic receptor (Homo sapiens) (UniProt P08588); conditions: Compound concentration 10.0 uM
[13] = biological target: Serine/threonine-protein kinase mTOR (Homo sapiens) (UniProt P42345); conditions: Compound concentration 1000.0 nM
[14] = system: Receptor-type tyrosine-protein kinase FLT3 (Homo sapiens), P36888 [N841I]; conditions: Compound concentration 1000.0 nM
[15] = system: Leucine-rich repeat serine/threonine-protein kinase 2 (Homo sapiens), Q5S007 [G2019S]; conditions: Compound concentration 1000.0 nM
[16] = biological target: Tyrosine-protein kinase JAK3 (Homo sapiens) (UniProt P52333); conditions: Compound concentration 1000.0 nM
[17] = biological target: Serine/threonine-protein kinase 32A (Homo sapiens) (UniProt Q8WU08); conditions: Compound concentration 1000.0 nM
[18] = biological target: Serine/threonine-protein kinase PAK 4 (Homo sapiens) (UniProt O96013); conditions: Compound concentration 1000.0 nM
[19] = biological target: Sigma non-opioid intracellular receptor 1 (Homo sapiens) (UniProt Q99720); conditions: Compound concentration 10.0 uM
[20] = biological target: Muscle, skeletal receptor tyrosine-protein kinase (Homo sapiens) (UniProt O15146); conditions: Compound concentration 1000.0 nM
[21] = biological target: Sodium-dependent noradrenaline transporter (Homo sapiens) (UniProt P23975); conditions: Compound concentration 10.0 uM
[22] = biological target: Receptor tyrosine-protein kinase erbB-2 (Homo sapiens) (UniProt P04626); conditions: Compound concentration 1000.0 nM
Receptor tyrosine-protein kinase erbB-2 (Homo sapiens), sequence (P04626 whole entry): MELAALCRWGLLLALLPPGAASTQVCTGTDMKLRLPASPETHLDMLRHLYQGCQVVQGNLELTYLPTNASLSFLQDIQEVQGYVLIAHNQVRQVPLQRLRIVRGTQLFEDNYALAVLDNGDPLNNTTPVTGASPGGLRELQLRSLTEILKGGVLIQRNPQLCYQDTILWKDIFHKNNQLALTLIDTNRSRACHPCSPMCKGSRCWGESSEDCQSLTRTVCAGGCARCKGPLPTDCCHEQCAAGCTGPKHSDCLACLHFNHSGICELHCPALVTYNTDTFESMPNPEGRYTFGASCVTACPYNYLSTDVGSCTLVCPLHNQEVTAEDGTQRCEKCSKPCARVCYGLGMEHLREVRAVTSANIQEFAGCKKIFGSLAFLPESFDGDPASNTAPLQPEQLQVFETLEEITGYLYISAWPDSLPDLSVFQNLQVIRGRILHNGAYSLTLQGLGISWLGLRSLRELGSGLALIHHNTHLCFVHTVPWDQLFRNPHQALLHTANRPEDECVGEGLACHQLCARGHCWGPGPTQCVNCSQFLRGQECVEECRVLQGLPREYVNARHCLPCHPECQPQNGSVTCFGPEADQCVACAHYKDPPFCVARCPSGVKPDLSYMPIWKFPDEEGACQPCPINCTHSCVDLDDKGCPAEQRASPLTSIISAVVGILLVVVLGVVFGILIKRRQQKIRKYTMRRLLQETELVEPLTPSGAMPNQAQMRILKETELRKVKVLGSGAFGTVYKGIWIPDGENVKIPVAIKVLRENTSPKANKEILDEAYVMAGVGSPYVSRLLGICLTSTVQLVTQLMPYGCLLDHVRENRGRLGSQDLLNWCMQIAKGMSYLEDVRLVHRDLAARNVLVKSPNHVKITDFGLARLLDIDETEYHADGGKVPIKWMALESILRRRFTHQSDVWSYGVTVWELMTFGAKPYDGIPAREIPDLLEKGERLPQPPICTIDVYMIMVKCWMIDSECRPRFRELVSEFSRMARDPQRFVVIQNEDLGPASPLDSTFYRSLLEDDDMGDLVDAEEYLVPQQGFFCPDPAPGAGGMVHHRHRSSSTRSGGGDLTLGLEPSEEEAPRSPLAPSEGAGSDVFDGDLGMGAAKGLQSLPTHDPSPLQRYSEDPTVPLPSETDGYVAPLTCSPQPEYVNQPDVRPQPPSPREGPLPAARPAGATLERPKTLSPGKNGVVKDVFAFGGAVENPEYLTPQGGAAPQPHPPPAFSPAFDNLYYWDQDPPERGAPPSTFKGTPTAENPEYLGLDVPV

[23] = biological target: Serine/threonine-protein kinase 32B (Homo sapiens) (UniProt Q9NY57); conditions: Compound concentration 1000.0 nM
[24] = biological target: Tyrosine-protein kinase ZAP-70 (Homo sapiens) (UniProt P43403); conditions: Compound concentration 1000.0 nM
[25] = biological target: Serine/threonine-protein kinase Nek9 (Homo sapiens) (UniProt Q8TD19); conditions: Compound concentration 1000.0 nM
[26] = biological target: Mitogen-activated protein kinase 8 (Homo sapiens) (UniProt P45983); conditions: Compound concentration 1000.0 nM
[27] = biological target: Tyrosine-protein kinase FRK (Homo sapiens) (UniProt P42685); conditions: Compound concentration 1000.0 nM
[28] = biological target: Muscarinic acetylcholine receptor M1 (Homo sapiens) (UniProt P11229); conditions: Compound concentration 10.0 uM
Muscarinic acetylcholine receptor M1 (Homo sapiens), sequence (P11229 whole entry): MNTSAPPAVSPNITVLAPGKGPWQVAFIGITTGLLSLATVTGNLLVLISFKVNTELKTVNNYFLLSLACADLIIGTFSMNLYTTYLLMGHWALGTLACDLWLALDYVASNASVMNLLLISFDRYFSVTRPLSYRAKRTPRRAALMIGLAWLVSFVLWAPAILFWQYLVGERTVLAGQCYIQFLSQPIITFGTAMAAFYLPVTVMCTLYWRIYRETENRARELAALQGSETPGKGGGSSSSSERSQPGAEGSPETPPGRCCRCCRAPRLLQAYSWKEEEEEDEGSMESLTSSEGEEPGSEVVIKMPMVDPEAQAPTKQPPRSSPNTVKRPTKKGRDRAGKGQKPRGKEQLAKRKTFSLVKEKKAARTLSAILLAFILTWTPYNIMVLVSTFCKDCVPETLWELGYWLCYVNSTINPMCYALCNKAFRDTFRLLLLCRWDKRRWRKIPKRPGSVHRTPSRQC

[29] = biological target: Tyrosine-protein kinase CSK (Homo sapiens) (UniProt P41240); conditions: Compound concentration 1000.0 nM
Tyrosine-protein kinase CSK (Homo sapiens), sequence (P41240 2-450 limits assumed): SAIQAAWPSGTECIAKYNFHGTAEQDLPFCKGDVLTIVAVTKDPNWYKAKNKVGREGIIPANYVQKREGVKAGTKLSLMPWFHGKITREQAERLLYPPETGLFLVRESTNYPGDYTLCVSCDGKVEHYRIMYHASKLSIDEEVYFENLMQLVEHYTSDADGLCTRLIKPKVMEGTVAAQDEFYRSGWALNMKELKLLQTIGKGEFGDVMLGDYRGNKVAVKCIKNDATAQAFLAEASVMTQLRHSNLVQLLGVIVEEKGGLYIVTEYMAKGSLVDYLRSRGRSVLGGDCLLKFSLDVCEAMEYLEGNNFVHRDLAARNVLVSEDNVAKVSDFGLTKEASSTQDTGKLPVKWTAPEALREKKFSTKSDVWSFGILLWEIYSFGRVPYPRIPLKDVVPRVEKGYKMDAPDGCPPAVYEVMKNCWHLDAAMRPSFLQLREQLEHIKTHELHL

[30] = biological target: Ephrin type-B receptor 6 (Homo sapiens) (UniProt O15197); conditions: Compound concentration 1000.0 nM
[31] = biological target: Dual specificity tyrosine-phosphorylation-regulated kinase 1B (Homo sapiens) (UniProt Q9Y463); conditions: Compound concentration 1000.0 nM
[32] = system: Tyrosine-protein kinase ABL1 (Homo sapiens), P00519 [F317L]; conditions: Compound concentration 1000.0 nM
Tyrosine-protein kinase ABL1 (Homo sapiens), P00519 [F317L], sequence (P00519 whole entry F317L): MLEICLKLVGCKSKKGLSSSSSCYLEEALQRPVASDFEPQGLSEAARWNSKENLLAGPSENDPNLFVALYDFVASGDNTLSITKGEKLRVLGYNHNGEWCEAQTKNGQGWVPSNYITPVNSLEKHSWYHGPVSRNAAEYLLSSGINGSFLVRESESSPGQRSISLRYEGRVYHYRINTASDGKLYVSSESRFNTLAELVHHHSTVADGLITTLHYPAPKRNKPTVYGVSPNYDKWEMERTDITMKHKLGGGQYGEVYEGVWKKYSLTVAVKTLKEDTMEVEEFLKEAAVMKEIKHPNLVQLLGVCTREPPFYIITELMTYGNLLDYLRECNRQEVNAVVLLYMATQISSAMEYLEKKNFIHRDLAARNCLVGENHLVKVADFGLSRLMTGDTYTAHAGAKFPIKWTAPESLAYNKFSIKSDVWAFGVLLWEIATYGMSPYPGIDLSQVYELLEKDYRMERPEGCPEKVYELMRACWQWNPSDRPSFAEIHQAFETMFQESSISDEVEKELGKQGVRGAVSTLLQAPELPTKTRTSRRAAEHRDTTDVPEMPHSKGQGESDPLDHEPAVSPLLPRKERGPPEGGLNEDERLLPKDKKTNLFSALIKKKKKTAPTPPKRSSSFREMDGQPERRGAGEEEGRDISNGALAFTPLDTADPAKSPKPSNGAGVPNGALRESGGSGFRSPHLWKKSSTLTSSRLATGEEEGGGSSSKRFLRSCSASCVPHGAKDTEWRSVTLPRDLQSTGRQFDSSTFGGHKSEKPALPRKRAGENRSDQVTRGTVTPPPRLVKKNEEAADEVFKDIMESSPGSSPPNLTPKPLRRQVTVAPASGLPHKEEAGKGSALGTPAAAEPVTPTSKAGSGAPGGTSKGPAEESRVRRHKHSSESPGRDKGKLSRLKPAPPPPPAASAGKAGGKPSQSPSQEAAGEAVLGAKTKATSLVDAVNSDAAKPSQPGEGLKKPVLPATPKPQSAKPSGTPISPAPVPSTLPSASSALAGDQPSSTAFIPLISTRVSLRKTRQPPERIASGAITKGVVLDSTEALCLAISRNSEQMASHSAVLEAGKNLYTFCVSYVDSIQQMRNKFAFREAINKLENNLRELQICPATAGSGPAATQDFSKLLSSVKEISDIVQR

[33] = biological target: Glycogen synthase kinase-3 beta (Homo sapiens) (UniProt P49841); conditions: Compound concentration 1000.0 nM
[34] = biological target: Dual specificity mitogen-activated protein kinase kinase 3 (Homo sapiens) (UniProt P46734); conditions: Compound concentration 1000.0 nM
[35] = biological target: Tyrosine-protein kinase Fyn (Homo sapiens) (UniProt P06241); conditions: Compound concentration 1000.0 nM
[36] = biological target: Tyrosine-protein kinase JAK1 (Homo sapiens) (UniProt P23458); conditions: Compound concentration 1000.0 nM
[37] = biological target: Serine/threonine-protein kinase DCLK3 (Homo sapiens) (UniProt Q9C098); conditions: Compound concentration 1000.0 nM
Serine/threonine-protein kinase DCLK3 (Homo sapiens), sequence (Q9C098 whole entry): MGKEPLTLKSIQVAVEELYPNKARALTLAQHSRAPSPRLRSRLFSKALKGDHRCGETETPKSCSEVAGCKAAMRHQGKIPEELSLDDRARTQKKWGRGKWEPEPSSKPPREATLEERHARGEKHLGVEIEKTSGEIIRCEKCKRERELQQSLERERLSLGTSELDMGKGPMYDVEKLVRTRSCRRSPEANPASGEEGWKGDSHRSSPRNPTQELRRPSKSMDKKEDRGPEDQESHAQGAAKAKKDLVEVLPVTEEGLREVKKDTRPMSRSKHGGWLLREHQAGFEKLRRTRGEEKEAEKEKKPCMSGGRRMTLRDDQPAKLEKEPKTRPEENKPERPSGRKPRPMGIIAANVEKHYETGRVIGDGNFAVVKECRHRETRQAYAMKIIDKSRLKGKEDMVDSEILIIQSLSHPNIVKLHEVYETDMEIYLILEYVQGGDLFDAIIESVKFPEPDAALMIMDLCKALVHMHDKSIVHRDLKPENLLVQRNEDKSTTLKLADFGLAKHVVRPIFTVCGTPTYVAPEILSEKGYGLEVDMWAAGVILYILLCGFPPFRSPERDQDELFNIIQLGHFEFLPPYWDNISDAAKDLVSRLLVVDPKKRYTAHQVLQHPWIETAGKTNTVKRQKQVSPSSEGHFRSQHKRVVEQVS

[38] = biological target: Dual specificity tyrosine-phosphorylation-regulated kinase 2 (Homo sapiens) (UniProt Q92630); conditions: Compound concentration 1000.0 nM
[39] = biological target: Serine/threonine-protein kinase Chk2 (Homo sapiens) (UniProt O96017); conditions: Compound concentration 1000.0 nM
[40] = system: Phosphatidylinositol 4,5-bisphosphate 3-kinase catalytic subunit alpha isoform (Homo sapiens), P42336 [E542K]; conditions: Compound concentration 1000.0 nM
[41] = biological target: Mitogen-activated protein kinase kinase kinase 10 (Homo sapiens) (UniProt Q02779); conditions: Compound concentration 1000.0 nM
[42] = biological target: Dual specificity mitogen-activated protein kinase kinase 1 (Homo sapiens) (UniProt Q02750); conditions: Compound concentration 1000.0 nM
[43] = biological target: Serine/threonine-protein kinase 4 (Homo sapiens) (UniProt Q13043); conditions: Compound concentration 1000.0 nM
[44] = biological target: Rho-associated protein kinase 1 (Homo sapiens) (UniProt Q13464); conditions: Compound concentration 1000.0 nM
[45] = biological target: Ribosomal protein S6 kinase alpha-3 (Homo sapiens) (UniProt P51812); conditions: Compound concentration 1000.0 nM

N#Cc1ccc(Nc2ccc3[nH]c(=O)[nH]c3c2)c(Cl)c1
inactive: inhibition [1] -7.86% | residual activity [2] 100% | residual activity [3] 70% | residual activity [4] 100% | residual activity [5] 100% | residual activity [6] 100% | residual activity [7] 100% | residual activity [8] 100% | residual activity [9] 100% | residual activity [10] 100% | residual activity [11] 91% | inhibition [12] 4.98% | residual activity [13] 98% | residual activity [14] 77% | residual activity [15] 93% | residual activity [16] 100% | residual activity [17] 81% | residual activity [18] 92% | inhibition [19] 14% | residual activity [20] 100% | inhibition [21] -2.68% | residual activity [22] 100% | residual activity [23] 92% | residual activity [24] 90% | residual activity [25] 96% | residual activity [26] 98% | residual activity [27] 73% | inhibition [28] -9.92% | residual activity [29] 89% | residual activity [30] 100% | residual activity [31] 83% | residual activity [32] 84% | residual activity [33] 96% | residual activity [34] 75% | residual activity [35] 89% | residual activity [36] 100% | residual activity [37] 88% | residual activity [38] 85% | residual activity [39] 100% | residual activity [40] 70% | residual activity [41] 99% | residual activity [42] 88% | residual activity [43] 100% | residual activity [44] 100% | residual activity [45] 100%

O=C1CCc2cc(Nc3cc(OC4CCOCC4)c([N+](=O)[O-])cc3Cl)ccc2N1
inactive: inhibition [1] 7.4% | residual activity [2] 92% | residual activity [3] 53% | residual activity [4] 94% | residual activity [5] 100% | residual activity [6] 100% | residual activity [7] 100% | residual activity [8] 100% | residual activity [9] 85% | residual activity [10] 91% | residual activity [11] 81% | inhibition [12] 3.3% | residual activity [13] 89% | residual activity [14] 100% | residual activity [15] 100% | residual activity [16] 96% | residual activity [17] 90% | residual activity [18] 100% | inhibition [19] 11.7% | residual activity [20] 100% | inhibition [21] 0.76% | residual activity [22] 100% | residual activity [23] 88% | residual activity [24] 91% | residual activity [25] 80% | residual activity [26] 91% | residual activity [27] 73% | inhibition [28] -4.43% | residual activity [29] 98% | residual activity [30] 100% | residual activity [31] 74% | residual activity [32] 88% | residual activity [33] 96% | residual activity [34] 86% | residual activity [35] 64% | residual activity [36] 94% | residual activity [37] 91% | residual activity [38] 97% | residual activity [39] 69% | residual activity [40] 71% | residual activity [41] 94% | residual activity [42] 72% | residual activity [43] 100% | residual activity [44] 80% | residual activity [45] 100%
